Patent publication US20240199547A1, “OPTICAL ABSORBENT COMPOSITION” (LMS CO., LTD., priority 2022, published 2024)

Test: Solubility of each synthesized chemical compound in solvents at room temperature
Assay type: physicochemical
Settings: room temperature (about 25° C.); for Solubility in MEK: methyl ethyl ketone (MEK); for Solubility in MIBK: methyl isobutyl ketone (MIBK)
Method: The solubility of each synthesized chemical compound was evaluated. Solubility was determined according to the following criteria by evaluating the solubility of each chemical compound in a plurality of solvents (cyclohexanone, toluene, methyl isobutyl ketone (MIBK) or methyl ethyl ketone (MEK)) at room temperature (about 25° C.).
A: When the solubility is 1% by mass or more.
B: When the solubility is 0.5% by mass or more and less than 1% by mass.
C: When the solubility is 0.2% by mass or more and less than 0.5% by mass.
D: When the solubility is less than 0.2% by mass.
The solubility evaluation results were summarized and described in Table 1.

| Compound | Solubility in Cyclohexanone | Solubility in MEK | Solubility in MIBK | Solubility in Toluene |
| --- | --- | --- | --- | --- |
| CCCCC(CC)C(=O)Nc1cc2c(cc1C1=C([O-])/C(=c3\cc4c(cc3NC(=O)C(CC)CCCC)=[N+](CCCC)C(C)C4(C)C)C1=O)C(C)(C)C(C)N2CCCC (centres unmarked) [Synthesis Example 2] | A (When the solubility is 1% by mass or more.) | A (When the solubility is 1% by mass or more.) | A (When the solubility is 1% by mass or more.) | A (When the solubility is 1% by mass or more.) |
| CCCCCCCCN1c2cc(NC(=O)C(F)(F)F)c(C3=C([O-])/C(=c4\cc5c(cc4NC(=O)C(F)(F)F)=[N+](CCCCCCCC)C(CC)C5(C)C)C3=O)cc2C(C)(C)C1CC (centres unmarked) [Synthesis Example 3] | A (When the solubility is 1% by mass or more.) | A (When the solubility is 1% by mass or more.) | A (When the solubility is 1% by mass or more.) | A (When the solubility is 1% by mass or more.) |
| CCCC(=O)Nc1cc2c(cc1C1=C([O-])/C(=c3\cc4c(cc3NC(=O)CCC)=[N+](CCOC)C(C)C4(C)C)C1=O)C(C)(C)C(C)N2CCOC (centres unmarked) [Synthesis Example 4] | A (When the solubility is 1% by mass or more.) | A (When the solubility is 1% by mass or more.) | A (When the solubility is 1% by mass or more.) | A (When the solubility is 1% by mass or more.) |
| CCCCCCN1c2cc(NC(=O)OCC)c(C3=C([O-])/C(=c4\cc5c(cc4NC(=O)OCC)=[N+](CCCCCC)C(C)C5(C)C)C3=O)cc2C(C)(C)C1C (centres unmarked) [Synthesis Example 5] | A (When the solubility is 1% by mass or more.) | A (When the solubility is 1% by mass or more.) | A (When the solubility is 1% by mass or more.) | A (When the solubility is 1% by mass or more.) |
| CC(=O)Nc1cc2c(cc1C1=C([O-])/C(=c3\cc4c(cc3NC(C)=O)=[N+](C)C(C)C4(C)C)C1=O)C(C)(C)C(C)N2C (centres unmarked) [Synthesis Example 6] | B (When the solubility is 0.5% by mass or more and less than 1% by mass.) | B (When the solubility is 0.5% by mass or more and less than 1% by mass.) | B (When the solubility is 0.5% by mass or more and less than 1% by mass.) | B (When the solubility is 0.5% by mass or more and less than 1% by mass.) |
